Earlier results, collected in patent US11670410B1, “Systems and methods to automatically administer a psychoactive substance to an airway of a user based on a detected event or condition” (priority 2022, dated 2023).

Assays:
[1] = galantamine consumed orally
[2] = nose-to-brain device, protocol dose 1 mg
[3] = @ 5 min., protocol dose 1.0 mg
[4] = inhaled after vaporization; protocol dose 10 mcg/Kg

## COc1ccc2c3c1O[C@H]1C[C@@H](O)C=C[C@@]31CCN(C)C2 [Galantamine, galantamine]
[1]
  Tmax: ~1.5 h
[2]
  PK-Intranasal Tmax: 0.5 to 0.75 h

## CC[C@H](C)[C@@H]1NC(=O)[C@H](Cc2ccc(O)cc2)NC(=O)[C@@H](N)CSSC[C@@H](C(=O)N2CCC[C@H]2C(=O)N[C@@H](CC(C)C)C(=O)NCC(N)=O)NC(=O)[C@H](CC(N)=O)NC(=O)[C@H](CCC(N)=O)NC1=O [Oxytocin, oxytocin]
[3]
  PK-Intranasal olfactory bulb concentration: > 0 @ 5 min.

## COC(=O)[C@@H]1C[C@H](OC(C)=O)C(=O)[C@H]2[C@@]1(C)CC[C@H]1C(=O)O[C@H](c3ccoc3)C[C@]21C [Salvinorin A, salvinorin A]
[4]
  PK-Inhaled Tmax: Tmax = 2 min.
